{"source": "paper PMC11094793", "about": "“Discovery of LLC0424 as a Potent and Selective in Vivo NSD2 PROTAC Degrader” (Journal of Medicinal Chemistry, 2024)", "key": {"[1]": {"biological_target": "T1, GSPT1 (Homo sapiens, UniProt P15170)", "T1 construct": "endogenous in cells; host or cells: RPMI-8402, SEM, VCaP", "T1 sequence (P15170 whole entry)": "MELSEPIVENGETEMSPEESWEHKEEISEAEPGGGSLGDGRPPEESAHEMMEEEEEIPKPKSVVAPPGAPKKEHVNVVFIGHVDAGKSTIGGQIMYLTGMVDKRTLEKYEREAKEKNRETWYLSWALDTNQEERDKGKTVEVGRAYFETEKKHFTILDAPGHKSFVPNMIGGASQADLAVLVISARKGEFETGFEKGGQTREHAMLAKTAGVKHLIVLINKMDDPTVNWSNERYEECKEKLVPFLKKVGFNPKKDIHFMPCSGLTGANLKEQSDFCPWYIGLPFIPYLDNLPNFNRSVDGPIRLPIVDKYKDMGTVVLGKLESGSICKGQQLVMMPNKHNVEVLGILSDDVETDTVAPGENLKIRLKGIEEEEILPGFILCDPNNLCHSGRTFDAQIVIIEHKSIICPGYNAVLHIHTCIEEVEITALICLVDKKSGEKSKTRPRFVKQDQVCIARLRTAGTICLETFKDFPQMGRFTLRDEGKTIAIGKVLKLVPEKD", "experiment": "GSPT1 level by proteomics and immunoblotting", "assay_type": "cell-based", "conditions": "2 μM", "protocol": "We conducted a global proteomic assay using tandem mass tags (TMT) labeled mass-spectrometry to unbiasedly quantify the protein change upon LLC0424 treatment in VCaP and RPMI-8402 cells. […] We further used SEM cell line to cross-validate the selectivity of LLC0424 for NSD2 over NSD1 and NSD3 as well as CRBN neo-substrates IKZF1, IKZF3, GSPT1, and CK-1α using immunoblotting. […] When we increased the treatment time of LLC0424 in SEM cells, we observed mild decrease of GSPT1 from 12 h (SI, Figure S3F).\nNSD2 is the primary methyltransferase that transfers dimethyl to H3K36 in ALL with NSD2 gain-of-function mutation. Therefore, the effects of LLC0424 on H3K36me2 was evaluated in SEM and RPMI-8402 cells. […] Meanwhile, LLC0424 treatment also led to downregulation of H3K36Me2 in RPMI-8402 cells within 24 h (Figure 6B). […] We also conducted a colony formation assay to evaluate the effect of LLC0424 on the stem cell-like property of the leukemia cells. […] As LLC0424 leads to strong degradation of both NSD2-L and NSD2-S, the phenotypic changes upon LLC0424 treatment result from complete inactivation of NSD2 activity, including adaptor-like function of NSD2-S and SET-domain dependent enzymatic function of NSD2-L. The specific contributions of NSD2 isoforms warrant future investigation. To characterize the genes affected by LLC0424 treatment, we performed global transcriptome analysis of SEM cells treated by DMSO, LLC0424, or LLC0424N. LLC0424 treatment led to significant changes in the transcriptome of SEM cells with over 326 differentially expressed genes. […] We further explored the contribution of NSD2 loss to the phenotype we observed in SEM cells. […] Still, whether and how LLC0424’s modest effect on GSPT1 contributes to the cytotoxic effects remains to be further explored. We also designed and synthesized the negative control LLC0877 bearing the warhead that is devoid of NSD2 binding (SI, Figure S5A).\nAfter treatment, the cultured cells were collected and rinsed with phosphate-buffered saline (PBS) in room temperature. The cells were treated with RIPA buffers (ThermoFisher Scientific) supplemented with Halt Protease and Phosphatase Inhibitor Cocktail (ThermoFisher Scientific). After sonication and centrifugation, the total amount of protein in the cell lysates was measured by Pierce Bovine Serum Albumin Standard Pre-Diluted Set (ThermoFisher Scientific). After mixed with LDS-sample buffer (Invitrogen) supplemented with Sample Reducing Agent (Invitrogen) and heated in 70 °C for 10 min, equal amount of protein was loaded into NuPAGE 4–12%, Bis-Tris Protein Gel (ThermoFisher Scientific) or NuPAGE 3–8%, Tris-Acetate Protein Gel (ThermoFisher Scientific), and blotted with primary antibodies. […]"}, "[2]": {"system": "SEM cells", "experiment": "RNA-seq global transcriptome analysis", "assay_type": "cell-based, human", "conditions": "14 days of treatment, versus DMSO", "protocol": "NSD2 is the primary methyltransferase that transfers dimethyl to H3K36 in ALL with NSD2 gain-of-function mutation. Therefore, the effects of LLC0424 on H3K36me2 was evaluated in SEM and RPMI-8402 cells. […] Meanwhile, LLC0424 treatment also led to downregulation of H3K36Me2 in RPMI-8402 cells within 24 h (Figure 6B). […] We also conducted a colony formation assay to evaluate the effect of LLC0424 on the stem cell-like property of the leukemia cells. […] As LLC0424 leads to strong degradation of both NSD2-L and NSD2-S, the phenotypic changes upon LLC0424 treatment result from complete inactivation of NSD2 activity, including adaptor-like function of NSD2-S and SET-domain dependent enzymatic function of NSD2-L. The specific contributions of NSD2 isoforms warrant future investigation. To characterize the genes affected by LLC0424 treatment, we performed global transcriptome analysis of SEM cells treated by DMSO, LLC0424, or LLC0424N. […]\nTotal RNA was isolated from cells using the miRNeasy Mini Kit (Qiagen). […] Paired-end libraries were sequenced with the Illumina HiSeq 2500 (2 × 100 nucleotide read length) with sequence coverage to 15–20 M paired reads. […] Then we performed the analysis in R. First, EdgeR (edgeR_3.39.6) was used to perform read counts normalization and filtering (counts >10) and then Limma-Voom (limma_3.53.10) was used to analyze differential expression."}}, "data": [{"smiles": "O=C1CCC(N2C(=O)c3ccc(N4CCC(NC(=O)c5ccc(NC(=O)c6ccc(CN(C(=O)c7ccc8c(c7)OCC(=O)N8)C7CC7)cc6)cc5)CC4)cc3C2=O)C(=O)N1", "note": "(stereo not shown) [compound 10l, N-Cyclopropyl-N-(4-((4-((1-(2-(2,6-dioxopiperidin-3-yl)-1,3-dioxoisoindolin-5-yl)piperidin-4-yl)carbamoyl)phenyl)carbamoyl)benzyl)-3-oxo-3,4-dihydro-2H-benzo[b][1,4]oxazine-7-carboxamide]", "values": [{"measurement": "GSPT1 level", "setting": "[1]; RPMI-8402 cells, global proteomics and immunoblotting", "result": "significant decrease"}, {"measurement": "GSPT1 level on longer treatment", "setting": "[1]; SEM cells, from 12 h", "result": "mild decrease"}, {"measurement": "GSPT1 degradation", "setting": "[1]; SEM or VCaP cells, as long as 8 h", "result": "did not induce GSPT1 degradation"}, {"measurement": "differentially expressed genes (transcriptome)", "setting": "[2]", "result": "over 326"}]}]}
